According to US12264156B2, “Compounds and pharmaceutical compositions thereof for the treatment of diseases” (GALAPAGOS NV, priority 2018, dated 2025):
pIC50: −log10 of the molar value.

Columns and labels:
Format in all cases: biochemical
Settings in all cases: ADP-Glo SIK kinase assay
[1] = molecular target: T1, SIK1 (Homo sapiens, UniProt P57059); test: ADP-Glo kinase assay, SIK1
T1 construct: purchased Carna Biosciences 02-131
Outline: (§1)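 Enzyme–substrate mix was started with ATP and incubated 120 min at RT. ADP formed was quantified by ADP-Glo: 40 min ATP depletion, then 30 min detection reagent converting ADP to ATP for luciferase luminescence, which rises with kinase activity. Controls: 1% DMSO and 10 μM staurosporine (final).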

[2] = molecular target: T2, SIK2 (Homo sapiens, UniProt Q9H0K1); test: ADP-Glo kinase assay, SIK2
T2 construct: purchased ThermoFisher Scientific PV4792
Outline: as §1

[3] = molecular target: T3, SIK3 (Homo sapiens, UniProt Q9Y2K2); test: ADP-Glo kinase assay, SIK3
T3 construct: purchased SignalChem S12-11G-100
Outline: as §1

T2 sequence (Q9H0K1 whole entry): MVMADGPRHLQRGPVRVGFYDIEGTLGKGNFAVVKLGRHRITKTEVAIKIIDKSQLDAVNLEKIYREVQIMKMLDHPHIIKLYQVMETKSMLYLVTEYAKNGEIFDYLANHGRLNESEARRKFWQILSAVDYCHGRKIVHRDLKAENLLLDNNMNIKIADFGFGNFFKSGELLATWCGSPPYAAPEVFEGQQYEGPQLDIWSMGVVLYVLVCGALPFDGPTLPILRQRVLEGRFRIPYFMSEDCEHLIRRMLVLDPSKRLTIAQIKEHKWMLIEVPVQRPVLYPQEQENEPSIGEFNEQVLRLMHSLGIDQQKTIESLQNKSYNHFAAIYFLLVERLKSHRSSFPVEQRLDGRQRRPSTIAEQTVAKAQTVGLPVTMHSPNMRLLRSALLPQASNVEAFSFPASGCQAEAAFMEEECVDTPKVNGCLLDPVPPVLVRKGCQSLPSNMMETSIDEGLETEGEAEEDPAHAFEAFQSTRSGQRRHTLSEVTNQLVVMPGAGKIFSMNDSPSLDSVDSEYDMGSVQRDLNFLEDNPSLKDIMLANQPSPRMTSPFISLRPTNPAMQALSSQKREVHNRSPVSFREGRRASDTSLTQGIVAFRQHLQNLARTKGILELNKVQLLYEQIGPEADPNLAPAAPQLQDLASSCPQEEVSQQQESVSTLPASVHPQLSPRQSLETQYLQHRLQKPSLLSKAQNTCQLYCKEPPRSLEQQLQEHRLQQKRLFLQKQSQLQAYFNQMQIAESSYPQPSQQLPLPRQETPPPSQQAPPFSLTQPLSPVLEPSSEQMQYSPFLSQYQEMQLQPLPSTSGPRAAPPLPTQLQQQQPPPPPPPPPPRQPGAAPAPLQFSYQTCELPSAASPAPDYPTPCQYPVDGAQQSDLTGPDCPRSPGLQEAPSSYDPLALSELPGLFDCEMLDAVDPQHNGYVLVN
T1 sequence (P57059 whole entry): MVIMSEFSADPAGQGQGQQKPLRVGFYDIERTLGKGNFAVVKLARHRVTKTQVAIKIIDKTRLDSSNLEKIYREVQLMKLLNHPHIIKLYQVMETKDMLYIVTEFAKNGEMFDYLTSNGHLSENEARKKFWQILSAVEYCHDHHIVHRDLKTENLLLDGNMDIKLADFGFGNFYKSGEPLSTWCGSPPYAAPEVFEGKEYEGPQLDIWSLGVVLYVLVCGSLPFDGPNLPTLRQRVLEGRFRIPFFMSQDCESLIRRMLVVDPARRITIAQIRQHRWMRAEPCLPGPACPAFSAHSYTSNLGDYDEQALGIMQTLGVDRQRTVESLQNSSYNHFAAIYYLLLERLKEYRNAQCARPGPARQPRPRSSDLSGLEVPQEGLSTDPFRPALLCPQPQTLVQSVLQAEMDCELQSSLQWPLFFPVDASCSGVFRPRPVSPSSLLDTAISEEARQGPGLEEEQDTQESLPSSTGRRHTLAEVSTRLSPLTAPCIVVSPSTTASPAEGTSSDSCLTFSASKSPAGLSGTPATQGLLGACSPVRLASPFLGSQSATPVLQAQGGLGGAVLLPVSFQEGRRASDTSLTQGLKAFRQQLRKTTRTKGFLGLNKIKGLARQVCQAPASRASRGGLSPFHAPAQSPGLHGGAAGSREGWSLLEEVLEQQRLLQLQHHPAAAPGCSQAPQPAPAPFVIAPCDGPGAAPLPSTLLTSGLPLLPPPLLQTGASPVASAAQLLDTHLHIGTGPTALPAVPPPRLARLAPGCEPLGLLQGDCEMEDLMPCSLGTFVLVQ
T3 sequence (Q9Y2K2 whole entry): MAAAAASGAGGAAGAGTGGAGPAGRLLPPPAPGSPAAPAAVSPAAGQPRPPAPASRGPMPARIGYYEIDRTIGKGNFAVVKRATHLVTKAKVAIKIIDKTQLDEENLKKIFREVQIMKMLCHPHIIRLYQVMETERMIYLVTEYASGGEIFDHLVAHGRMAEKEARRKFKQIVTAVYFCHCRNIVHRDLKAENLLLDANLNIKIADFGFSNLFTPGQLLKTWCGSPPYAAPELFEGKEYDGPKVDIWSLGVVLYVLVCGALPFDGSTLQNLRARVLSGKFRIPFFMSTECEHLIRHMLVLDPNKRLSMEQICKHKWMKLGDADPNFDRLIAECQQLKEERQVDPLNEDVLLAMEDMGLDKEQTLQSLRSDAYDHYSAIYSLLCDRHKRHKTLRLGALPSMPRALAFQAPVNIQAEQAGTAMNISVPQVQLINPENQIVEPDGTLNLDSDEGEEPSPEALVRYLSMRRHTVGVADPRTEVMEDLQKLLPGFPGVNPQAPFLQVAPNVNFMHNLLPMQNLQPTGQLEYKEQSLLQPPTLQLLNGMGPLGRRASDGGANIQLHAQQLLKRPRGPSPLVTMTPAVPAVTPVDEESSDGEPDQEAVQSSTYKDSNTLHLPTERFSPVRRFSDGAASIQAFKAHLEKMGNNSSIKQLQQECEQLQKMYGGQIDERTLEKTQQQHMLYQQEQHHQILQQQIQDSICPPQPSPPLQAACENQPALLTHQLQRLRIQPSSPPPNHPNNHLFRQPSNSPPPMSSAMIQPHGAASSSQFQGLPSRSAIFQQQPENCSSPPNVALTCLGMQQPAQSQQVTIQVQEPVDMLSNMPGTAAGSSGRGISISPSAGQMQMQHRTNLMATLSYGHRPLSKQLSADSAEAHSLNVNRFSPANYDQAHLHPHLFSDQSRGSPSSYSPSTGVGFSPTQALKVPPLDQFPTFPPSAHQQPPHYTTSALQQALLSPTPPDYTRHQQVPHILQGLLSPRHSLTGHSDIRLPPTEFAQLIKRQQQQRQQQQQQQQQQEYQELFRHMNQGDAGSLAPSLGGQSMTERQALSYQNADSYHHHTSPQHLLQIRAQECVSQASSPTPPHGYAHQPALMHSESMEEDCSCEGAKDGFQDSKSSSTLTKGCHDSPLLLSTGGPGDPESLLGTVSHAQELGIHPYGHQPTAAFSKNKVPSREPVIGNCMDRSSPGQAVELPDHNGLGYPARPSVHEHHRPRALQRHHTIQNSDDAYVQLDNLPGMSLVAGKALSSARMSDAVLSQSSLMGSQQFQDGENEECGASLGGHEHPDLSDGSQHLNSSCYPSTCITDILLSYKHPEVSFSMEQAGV

Structure (SMILES) | pIC50 [1] | pIC50 [2] | pIC50 [3]
COc1cc(-c2cnc3cc(OCCCN4CCCCC4)ccn23)cc(OC(F)F)c1C(=O)N[C@H]1CC[C@H]1O (racemic) [compound 353, 2-(difluoromethoxy)-6-methoxy-4-[7-[3-(1-piperidyl)propoxy]imidazo [1,2-a]pyridin-3-yl]-N-[(1S,2R)-2-hydroxycyclobutyl] benzamide/2-(difluoromethoxy)-N-[(1R,2S)-2-hydroxycyclobutyl]-6-methoxy-4-[7-[3-(1-piperidyl)propoxy]imidazo[1,2-a]pyridin-3-yl]benzamide mixture] | 6.30 to 7.00 | 8.00 to 11.00 | 7.00 to 8.00
COc1cc(-c2cnc3cc(OCCN4CC(C)OC(C)C4)ccn23)cc(OC(F)F)c1C(=O)NC1CC1 (stereo not drawn) [Cpd 177, N-cyclopropyl-2-(difluoromethoxy)-4-[7-[2-(2,6-dimethylmorpholin-4-yl)ethoxy]imidazo [1,2-a]pyridin-3-yl]-6-methoxy-benzamide] | 7.00 to 8.00 | 8.00 to 11.00 | 8.00 to 11.00
COc1cc(-c2cnc3cc(OCC4CCCCN4CC#N)ccn23)cc(OC(F)F)c1C(=O)NC1CC1 (stereo not drawn) [compound 269, 4-[7-[[1-(cyanomethyl)-2-piperidyl]methoxy]imidazo [1,2-a]pyridin-3-yl]-N-cyclopropyl-2-(difluoromethoxy)-6-methoxy-benzamide] | 7.00 to 8.00 | 7.00 to 8.00 | 8.00 to 11.00
COc1cc(-c2cnc3cc(OCCN4CC(F)(F)C4)ccn23)cc(OC(F)F)c1C(=O)NC1CC1 [compound 186, N-cyclopropyl-4-[7-[2-(3,3-difluoroazetidin-1-yl)ethoxy]imidazo[1,2-a]pyridin-3-yl]-2-(difluoromethoxy)-6-methoxy-benzamide] | 7.00 to 8.00 | 8.00 to 11.00 | 8.00 to 11.00
COc1cc(-c2cnc3cc(OCCCN4CCn5ccnc5C4)ccn23)cc(OC(F)F)c1C(=O)NC1CC1 [compound 312, N-cyclopropyl-2-(difluoromethoxy)-4-[7-[3-(6,8-dihydro-5H-imidazo[1,2-a]pyrazin-7-yl)propoxy]imidazo[1,2-a]pyridin-3-yl]-6-methoxy-benzamide] | 7.00 to 8.00 | 8.00 to 11.00 | 8.00 to 11.00
CCN(CC)CCOCCOc1ccn2c(-c3cc(OC)c(C(=O)NC4CC4)c(OC(F)F)c3)cnc2c1 [compound 307, N-cyclopropyl-4-[7-[2-[2-(diethylamino)ethoxy]ethoxy]imidazo[1,2-a]pyridin-3-yl]-2-(difluoromethoxy)-6-methoxy-benzamide] | 7.00 to 8.00 | 8.00 to 11.00 | 7.00 to 8.00
COc1cc(-c2cnc3cc(OCC4(C)CN(C)C4)ccn23)cc2c1C(=O)N(CC(F)(F)F)CC2 [Cpd 253, 6-[7-[(1,3-dimethylazetidin-3-yl)methoxy]imidazo[1,2-a]pyridin-3-yl]-8-methoxy-2-(2,2,2-trifluoroethyl)-3,4-dihydroisoquinolin-1-one] | < 6.30 | 7.00 to 8.00 | 8.00 to 11.00
COc1cc(-c2cnc3cc(OC4COC4)ccn23)cc(OC(F)F)c1C(=O)NC1CC1 [compound 152, N-cyclopropyl-2-(difluoromethoxy)-6-methoxy-4-[7-(oxetan-3-yloxy)imidazo[1,2-a]pyridin-3-yl]benzamide] | 7.00 to 8.00 | 7.00 to 8.00 | 8.00 to 11.00
COC(=O)[C@@H]1CN(CCOc2ccn3c(-c4cc(OC)c(C(=O)NC5CC5)c(OC(F)F)c4)cnc3c2)CCO1 [compound 389, methyl (2S)-4-[2-[3-[4-(cyclopropylcarbamoyl)-3-(difluoromethoxy)-5-methoxy-phenyl]imidazo[1,2-a]pyridin-7-yl]oxyethyl]morpholine-2-carboxylate] | 7.00 to 8.00 | 8.00 to 11.00 | 8.00 to 11.00
COc1cc(-c2cnc3cc(OCC(C)(C)C#N)ccn23)cc(OC(F)F)c1C(=O)NC1CC1 [compound 34, 4-[7-(2-cyano-2-methyl-propoxy)imidazo[1,2-a]pyridin-3-yl]-N-cyclopropyl-2-(difluoromethoxy)-6-methoxy-benzamide] | 7.00 to 8.00 | 8.00 to 11.00 | 8.00 to 11.00
COc1cc(-c2cnc3cc(OCC4CCCC4)ccn23)cc(OC(F)F)c1C(=O)NC1CC1 [compound 61, 4-[7-(cyclopentylmethoxy)imidazo[1,2-a]pyridin-3-yl]-N-cyclopropyl-2-(difluoromethoxy)-6-methoxy-benzamide] | 8.00 to 11.00 | 8.00 to 11.00 | 8.00 to 11.00
COc1cc(-c2cnc3cc(OCC4CCN4C(=O)OC(C)(C)C)ccn23)cc(OC(F)F)c1C(=O)NC1CC1 (stereo not drawn) [compound 87, tert-butyl 2-[[3-[4-(cyclopropylcarbamoyl)-3-(difluoromethoxy)-5-methoxy-phenyl]imidazo[1,2-a]pyridin-7-yl]oxymethyl]azetidine-1-carboxylate] | 7.00 to 8.00 | 8.00 to 11.00 | 8.00 to 11.00
COc1cc(-c2cnc3cc(OCC4(C)CC4)ccn23)cc(OC(F)F)c1C(=O)NC1CC1 [compound 97, N-cyclopropyl-2-(difluoromethoxy)-6-methoxy-4-[7-[(1-methylcyclopropyl)methoxy]imidazo[1,2-a]pyridin-3-yl]benzamide] | 7.00 to 8.00 | 8.00 to 11.00 | 8.00 to 11.00
COc1cc(-c2cnc3cc(Oc4ccccc4)ccn23)cc(OC(F)F)c1C(=O)NC1CC1 [compound 157, N-cyclopropyl-2-(difluoromethoxy)-6-methoxy-4-(7-phenoxyimidazo[1,2-a]pyridin-3-yl)benzamide] | 6.30 to 7.00 | 6.30 to 7.00 | 8.00 to 11.00
COc1cc(-c2cnc3cc(OCc4cncn4C)ccn23)cc(OC(F)F)c1C(=O)NC1CC1 [compound 19, N-cyclopropyl-2-(difluoromethoxy)-6-methoxy-4-[7-[(3-methylimidazol-4-yl)methoxy]imidazo[1,2-a]pyridin-3-yl]benzamide] | 7.00 to 8.00 | 8.00 to 11.00 | 8.00 to 11.00
COc1cc(-c2cnc3cc(OCCCN4[C@H](C)CCC[C@@H]4C)ccn23)cc(OC(F)F)c1C(=O)NC1CC1 [compound 352, N-cyclopropyl-2-(difluoromethoxy)-4-[7-[3-[(2R,6S)-2,6-dimethyl-1-piperidyl]propoxy]imidazo [1,2-a]pyridin-3-yl]-6-methoxy-benzamide] | 8.00 to 11.00 | 8.00 to 11.00 | 8.00 to 11.00
COc1cc(-c2cnc3cc(OC[C@H]4CCCN(CCC#N)C4)ccn23)cc(OC(F)F)c1C(=O)NC1CC1 [compound 351, 4-[7-[[(3S)-1-(2-cyanoethyl)-3-piperidyl]methoxy]imidazo [1,2-a]pyridin-3-yl]-N-cyclopropyl-2-(difluoromethoxy)-6-methoxy-benzamide] | 8.00 to 11.00 | 8.00 to 11.00 | 8.00 to 11.00
COc1cc(-c2cnc3cc(OC4CN(C)C4)ccn23)cc(OC(F)F)c1C(=O)NC1CC1 [compound 29, N-cyclopropyl-2-(difluoromethoxy)-6-methoxy-4-[7-(1-methylazetidin-3-yl)oxyimidazo[1,2-a]pyridin-3-yl]benzamide] | 6.30 to 7.00 | 7.00 to 8.00 | 7.00 to 8.00
COc1cc(-c2cnc3cc(OCC4COCCN4C)ccn23)cc(OC(F)F)c1C(=O)NC1CC1 (stereo not drawn) [compound 201, N-cyclopropyl-2-(difluoromethoxy)-6-methoxy-4-[7-[(4-methylmorpholin-3-yl)methoxy]imidazo[1,2-a]pyridin-3-yl]benzamide] | 7.00 to 8.00 | 7.00 to 8.00 | 8.00 to 11.00
COc1cc(-c2cnc3cc(OCC4CCCN(C=O)C4)ccn23)cc(OC(F)F)c1C(=O)NC1CC1 (stereo not drawn) [compound 142, N-cyclopropyl-2-(difluoromethoxy)-4-[7-[(1-formyl-3-piperidyl)methoxy]imidazo [1,2-a]pyridin-3-yl]-6-methoxy-benzamide] | 8.00 to 11.00 | 8.00 to 11.00 | 8.00 to 11.00
COc1ccn2c(-c3cc4c(c(OC)c3)C(=O)N(CC(F)(F)F)CC4)cnc2c1 [Cpd 256, 8-methoxy-6-(7-methoxyimidazo[1,2-a]pyridin-3-yl)-2-(2,2,2-trifluoroethyl)-3,4-dihydroisoquinolin-1-one] | 6.30 to 7.00 | 7.00 to 8.00 | 7.00 to 8.00
COCCN(CCOc1ccn2c(-c3cc(OC)c(C(=O)NC4CC4)c(OC(F)F)c3)cnc2c1)CC(F)F [compound 237, N-cyclopropyl-4-[7-[2-[2,2-difluoroethyl(2-methoxyethyl)amino]ethoxy]imidazo[1,2-a]pyridin-3-yl]-2-(difluoromethoxy)-6-methoxy-benzamide] | 7.00 to 8.00 | 8.00 to 11.00 | 8.00 to 11.00
COc1cc(-c2cnc3cc(OCC4CCCCN4S(C)(=O)=O)ccn23)cc(OC(F)F)c1C(=O)NC1CC1 (stereo not drawn) [Cpd 129, N-cyclopropyl-2-(difluoromethoxy)-6-methoxy-4-[7-[(1-methylsulfonyl-2-piperidyl)methoxy]imidazo[1,2-a]pyridin-3-yl]benzamide] | 8.00 to 11.00 | 8.00 to 11.00 | 8.00 to 11.00
COc1cc(-c2cnc3cc(OCC4(N)CCCCC4)ccn23)cc(OC(F)F)c1C(=O)NC1CC1 [compound 169, 4-[7-[(1-aminocyclohexyl)methoxy]imidazo[1,2-a]pyridin-3-yl]-N-cyclopropyl-2-(difluoromethoxy)-6-methoxy-benzamide] | 6.30 to 7.00 | 7.00 to 8.00 | 8.00 to 11.00
COc1cc(-c2cnc3cc(OCCO)ccn23)cc2c1C(=O)N(CC(F)(F)F)CC2 [Cpd 258, 6-[7-(2-hydroxyethoxy)imidazo [1,2-a]pyridin-3-yl]-8-methoxy-2-(2,2,2-trifluoroethyl)-3,4-dihydroisoquinolin-1-one] | 6.30 to 7.00 | 7.00 to 8.00 | 8.00 to 11.00
